Data published in ChEMBL document CHEMBL4507296 (2021).

How the values were obtained:
[1] = molecular target: Homeodomain-interacting protein kinase 4 (Homo sapiens) (UniProt Q8NE63); conditions: Compound concentration 1000.0 nM
[2] = molecular target: Serine/threonine-protein kinase 35 (Homo sapiens) (UniProt Q8TDR2); conditions: Compound concentration 1000.0 nM
[3] = molecular target: Serine/threonine-protein kinase D3 (Homo sapiens) (UniProt O94806); conditions: Compound concentration 1000.0 nM
[4] = molecular target: Tyrosine-protein kinase receptor Tie-1 (Homo sapiens) (UniProt P35590); conditions: Compound concentration 1000.0 nM
[5] = molecular target: Cyclin-dependent kinase 13 (Homo sapiens) (UniProt Q14004); conditions: Compound concentration 1000.0 nM
[6] = molecular target: Bone morphogenetic protein receptor type-1A (Homo sapiens) (UniProt P36894); conditions: Compound concentration 1000.0 nM
[7] = molecular target: Serine/threonine-protein kinase Nek11 (Homo sapiens) (UniProt Q8NG66); conditions: Compound concentration 1000.0 nM
[8] = molecular target: Mitogen-activated protein kinase kinase kinase 14 (Homo sapiens) (UniProt Q99558); conditions: Compound concentration 1000.0 nM
[9] = molecular target: Serine/threonine-protein kinase NIM1 (Homo sapiens) (UniProt Q8IY84); conditions: Compound concentration 1000.0 nM
[10] = molecular target: Serine/threonine-protein kinase BRSK1 (Homo sapiens) (UniProt Q8TDC3); conditions: Compound concentration 1000.0 nM
[11] = molecular target: Beta-2 adrenergic receptor (Homo sapiens) (UniProt P07550); conditions: Compound concentration 10.0 uM
[12] = molecular target: Prostaglandin G/H synthase 2 (Homo sapiens) (UniProt P35354); assay: Cyclooxygenase 2 (human) CEREP ligand profiling; conditions: Compound concentration 10.0 uM
Chain of Prostaglandin G/H synthase 2 (Homo sapiens) (P35354 whole entry): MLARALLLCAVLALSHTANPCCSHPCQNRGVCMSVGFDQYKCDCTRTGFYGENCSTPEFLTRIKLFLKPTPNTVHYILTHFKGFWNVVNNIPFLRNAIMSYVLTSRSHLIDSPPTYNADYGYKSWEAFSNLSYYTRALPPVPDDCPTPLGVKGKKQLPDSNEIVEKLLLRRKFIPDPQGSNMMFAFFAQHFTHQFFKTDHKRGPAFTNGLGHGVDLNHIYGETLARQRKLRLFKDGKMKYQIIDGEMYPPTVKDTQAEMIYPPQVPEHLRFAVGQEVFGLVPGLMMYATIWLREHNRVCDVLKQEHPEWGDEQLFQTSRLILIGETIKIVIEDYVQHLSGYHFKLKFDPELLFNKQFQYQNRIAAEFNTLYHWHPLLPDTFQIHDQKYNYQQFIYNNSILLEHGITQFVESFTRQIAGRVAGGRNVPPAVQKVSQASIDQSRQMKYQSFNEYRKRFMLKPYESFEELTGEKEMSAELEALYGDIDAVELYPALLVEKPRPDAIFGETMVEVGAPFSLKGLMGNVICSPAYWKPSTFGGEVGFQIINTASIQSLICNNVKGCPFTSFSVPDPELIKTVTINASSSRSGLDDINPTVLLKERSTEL

[13] = molecular target: Megakaryocyte-associated tyrosine-protein kinase (Homo sapiens) (UniProt P42679); conditions: Compound concentration 1000.0 nM
[14] = molecular target: Fibroblast growth factor receptor 1 (Homo sapiens) (UniProt P11362); conditions: Compound concentration 1000.0 nM
[15] = molecular target: Aurora kinase B (Homo sapiens) (UniProt Q96GD4); conditions: Compound concentration 1000.0 nM
Chain of Aurora kinase B (Homo sapiens) (Q96GD4 whole entry): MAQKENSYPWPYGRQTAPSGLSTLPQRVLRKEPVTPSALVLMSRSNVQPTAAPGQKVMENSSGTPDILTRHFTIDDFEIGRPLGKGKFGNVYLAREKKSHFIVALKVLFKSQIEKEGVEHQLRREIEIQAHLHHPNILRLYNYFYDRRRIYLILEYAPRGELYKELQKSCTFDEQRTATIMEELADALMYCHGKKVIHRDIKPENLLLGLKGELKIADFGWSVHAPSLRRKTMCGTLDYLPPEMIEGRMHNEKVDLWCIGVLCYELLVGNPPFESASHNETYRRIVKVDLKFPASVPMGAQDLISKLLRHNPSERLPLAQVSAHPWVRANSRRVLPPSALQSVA

[16] = molecular target: Cyclin-G-associated kinase (Homo sapiens) (UniProt O14976); conditions: Compound concentration 1000.0 nM
[17] = molecular target: Tyrosine-protein kinase Yes (Homo sapiens) (UniProt P07947); conditions: Compound concentration 1000.0 nM
[18] = molecular target: Mitogen-activated protein kinase kinase kinase kinase 3 (Homo sapiens) (UniProt Q8IVH8); conditions: Compound concentration 1000.0 nM
[19] = test system: Hepatocyte growth factor receptor (Homo sapiens), P08581 [M1250T]; conditions: Compound concentration 1000.0 nM
[20] = molecular target: cAMP-dependent protein kinase catalytic subunit alpha (Homo sapiens) (UniProt P17612); conditions: Compound concentration 1000.0 nM
[21] = molecular target: RAC-beta serine/threonine-protein kinase (Homo sapiens) (UniProt P31751); conditions: Compound concentration 1000.0 nM
[22] = molecular target: Bone morphogenetic protein receptor type-2 (Homo sapiens) (UniProt Q13873); conditions: Compound concentration 1000.0 nM
[23] = test system: Serine/threonine-protein kinase B-raf (Homo sapiens), P15056 [V600E]; conditions: Compound concentration 1000.0 nM
[24] = molecular target: Serine/threonine-protein kinase MRCK beta (Homo sapiens) (UniProt Q9Y5S2); conditions: Compound concentration 1000.0 nM
[25] = test system: Tyrosine-protein kinase ABL1 (Homo sapiens), P00519 [T315I]; conditions: Compound concentration 1000.0 nM
[26] = test system: ALK tyrosine kinase receptor (Homo sapiens), Q9UM73 [L1196M]; conditions: Compound concentration 1000.0 nM
Chain of ALK tyrosine kinase receptor (Homo sapiens), Q9UM73 [L1196M] (Q9UM73 whole entry L1196M, looked up): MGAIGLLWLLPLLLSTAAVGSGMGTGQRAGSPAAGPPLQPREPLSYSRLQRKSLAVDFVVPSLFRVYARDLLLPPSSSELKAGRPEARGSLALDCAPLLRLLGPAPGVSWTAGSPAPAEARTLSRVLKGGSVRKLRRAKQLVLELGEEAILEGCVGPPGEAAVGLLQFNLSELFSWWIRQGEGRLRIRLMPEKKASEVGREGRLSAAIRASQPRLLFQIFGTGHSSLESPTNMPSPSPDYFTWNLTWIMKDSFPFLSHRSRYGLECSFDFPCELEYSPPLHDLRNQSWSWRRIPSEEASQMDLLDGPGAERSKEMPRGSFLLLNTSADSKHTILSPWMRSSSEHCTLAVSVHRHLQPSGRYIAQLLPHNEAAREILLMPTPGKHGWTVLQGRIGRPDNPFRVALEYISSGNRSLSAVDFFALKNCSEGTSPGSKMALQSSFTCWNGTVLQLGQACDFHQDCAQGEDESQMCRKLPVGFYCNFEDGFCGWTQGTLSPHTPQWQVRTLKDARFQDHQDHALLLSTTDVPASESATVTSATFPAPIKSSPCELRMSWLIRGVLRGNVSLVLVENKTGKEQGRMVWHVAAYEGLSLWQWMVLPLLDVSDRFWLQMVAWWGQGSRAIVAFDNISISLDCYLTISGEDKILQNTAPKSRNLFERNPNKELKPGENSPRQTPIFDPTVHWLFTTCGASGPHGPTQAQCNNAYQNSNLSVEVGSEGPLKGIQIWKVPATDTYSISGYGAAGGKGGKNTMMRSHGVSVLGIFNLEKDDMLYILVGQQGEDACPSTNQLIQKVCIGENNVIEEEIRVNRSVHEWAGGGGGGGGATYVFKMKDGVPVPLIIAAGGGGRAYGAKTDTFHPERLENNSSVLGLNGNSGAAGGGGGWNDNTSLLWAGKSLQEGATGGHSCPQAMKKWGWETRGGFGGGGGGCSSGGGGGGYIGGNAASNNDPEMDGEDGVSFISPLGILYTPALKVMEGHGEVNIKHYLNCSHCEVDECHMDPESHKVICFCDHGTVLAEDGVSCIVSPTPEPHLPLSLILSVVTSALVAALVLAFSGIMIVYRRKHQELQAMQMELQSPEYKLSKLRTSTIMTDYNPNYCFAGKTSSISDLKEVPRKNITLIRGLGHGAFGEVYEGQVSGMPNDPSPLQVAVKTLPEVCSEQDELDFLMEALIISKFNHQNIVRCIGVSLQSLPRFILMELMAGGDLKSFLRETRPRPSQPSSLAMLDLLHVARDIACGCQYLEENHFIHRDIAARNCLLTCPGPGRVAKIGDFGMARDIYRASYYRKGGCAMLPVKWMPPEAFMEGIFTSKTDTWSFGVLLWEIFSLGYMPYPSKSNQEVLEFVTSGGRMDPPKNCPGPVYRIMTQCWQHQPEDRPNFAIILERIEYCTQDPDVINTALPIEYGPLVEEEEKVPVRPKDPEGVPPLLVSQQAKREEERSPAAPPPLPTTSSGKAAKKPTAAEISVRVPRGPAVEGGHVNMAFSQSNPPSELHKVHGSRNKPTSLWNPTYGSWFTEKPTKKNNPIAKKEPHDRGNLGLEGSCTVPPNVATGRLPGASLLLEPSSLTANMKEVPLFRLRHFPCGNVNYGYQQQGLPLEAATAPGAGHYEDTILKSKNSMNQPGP

[27] = molecular target: GABA-A receptor; anion channel (Rattus norvegicus) (UniProt O09028+P15431+P18506+P18508+P19969+P20236+P23574+P23576+P28471+P28473+P30191+P62813+P63079+P63138+Q91ZM7+Q9ES14); conditions: Compound concentration 10.0 uM
[28] = molecular target: Phosphatidylinositol 4-phosphate 5-kinase type-1 alpha (Homo sapiens) (UniProt Q99755); conditions: Compound concentration 1000.0 nM
[29] = molecular target: Kappa-type opioid receptor (Rattus norvegicus) (UniProt P34975); assay: k-Opioid (rat) CEREP ligand profiling; conditions: Compound concentration 10.0 uM
[30] = molecular target: Tyrosine-protein kinase Mer (Homo sapiens) (UniProt Q12866); conditions: Compound concentration 1000.0 nM
[31] = molecular target: Calcium/calmodulin-dependent protein kinase type II subunit gamma (Homo sapiens) (UniProt Q13555); conditions: Compound concentration 1000.0 nM
[32] = molecular target: Phosphatidylinositol 4,5-bisphosphate 3-kinase catalytic subunit alpha isoform (Homo sapiens) (UniProt P42336); conditions: Compound concentration 1000.0 nM
[33] = molecular target: Serine/threonine-protein kinase PLK3 (Homo sapiens) (UniProt Q9H4B4); conditions: Compound concentration 1000.0 nM
[34] = molecular target: Tyrosine-protein kinase ABL1 (Homo sapiens) (UniProt P00519); conditions: Compound concentration 1000.0 nM
[35] = molecular target: Tyrosine-protein kinase Fes/Fps (Homo sapiens) (UniProt P07332); conditions: Compound concentration 1000.0 nM
[36] = molecular target: Dual serine/threonine and tyrosine protein kinase (Homo sapiens) (UniProt Q6XUX3); conditions: Compound concentration 1000.0 nM
[37] = molecular target: D(1B) dopamine receptor (Homo sapiens) (UniProt P21918); conditions: Compound concentration 10.0 uM
Chain of D(1B) dopamine receptor (Homo sapiens) (P21918 whole entry): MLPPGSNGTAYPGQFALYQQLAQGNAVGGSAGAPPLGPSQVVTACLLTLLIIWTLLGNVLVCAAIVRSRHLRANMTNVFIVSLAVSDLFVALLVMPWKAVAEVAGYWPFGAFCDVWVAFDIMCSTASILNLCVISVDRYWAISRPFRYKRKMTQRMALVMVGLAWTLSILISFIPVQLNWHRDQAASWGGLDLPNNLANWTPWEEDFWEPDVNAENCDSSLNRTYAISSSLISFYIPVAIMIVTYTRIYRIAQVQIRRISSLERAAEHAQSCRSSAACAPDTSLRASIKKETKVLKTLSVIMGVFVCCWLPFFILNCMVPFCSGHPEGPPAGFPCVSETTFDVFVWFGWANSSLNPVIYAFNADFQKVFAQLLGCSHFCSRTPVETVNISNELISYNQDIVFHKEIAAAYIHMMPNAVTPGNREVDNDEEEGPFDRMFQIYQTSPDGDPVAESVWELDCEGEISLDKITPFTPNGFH

[38] = molecular target: Tyrosine-protein kinase CSK (Homo sapiens) (UniProt P41240); conditions: Compound concentration 1000.0 nM
Chain of Tyrosine-protein kinase CSK (Homo sapiens) (P41240 2-450 limits assumed): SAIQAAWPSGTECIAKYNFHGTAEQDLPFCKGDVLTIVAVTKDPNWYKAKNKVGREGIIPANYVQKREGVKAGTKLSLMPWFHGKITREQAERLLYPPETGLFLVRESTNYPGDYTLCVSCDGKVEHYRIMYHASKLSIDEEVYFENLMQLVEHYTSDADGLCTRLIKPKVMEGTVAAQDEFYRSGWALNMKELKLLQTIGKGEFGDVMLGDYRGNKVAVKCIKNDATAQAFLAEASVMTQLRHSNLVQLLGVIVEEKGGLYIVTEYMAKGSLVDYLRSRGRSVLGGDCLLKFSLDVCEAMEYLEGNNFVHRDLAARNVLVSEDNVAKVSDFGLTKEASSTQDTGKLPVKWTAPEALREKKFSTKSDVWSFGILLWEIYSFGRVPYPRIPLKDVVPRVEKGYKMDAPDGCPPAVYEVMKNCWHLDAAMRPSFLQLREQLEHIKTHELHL

[39] = molecular target: Insulin-like growth factor 1 receptor (Homo sapiens) (UniProt P08069); conditions: Compound concentration 1000.0 nM
[40] = molecular target: Mitogen-activated protein kinase kinase kinase 13 (Homo sapiens) (UniProt O43283); conditions: Compound concentration 1000.0 nM
[41] = molecular target: Mitogen-activated protein kinase kinase kinase kinase 5 (Homo sapiens) (UniProt Q9Y4K4); conditions: Compound concentration 1000.0 nM
Chain of Mitogen-activated protein kinase kinase kinase kinase 5 (Homo sapiens) (Q9Y4K4 whole entry, looked up): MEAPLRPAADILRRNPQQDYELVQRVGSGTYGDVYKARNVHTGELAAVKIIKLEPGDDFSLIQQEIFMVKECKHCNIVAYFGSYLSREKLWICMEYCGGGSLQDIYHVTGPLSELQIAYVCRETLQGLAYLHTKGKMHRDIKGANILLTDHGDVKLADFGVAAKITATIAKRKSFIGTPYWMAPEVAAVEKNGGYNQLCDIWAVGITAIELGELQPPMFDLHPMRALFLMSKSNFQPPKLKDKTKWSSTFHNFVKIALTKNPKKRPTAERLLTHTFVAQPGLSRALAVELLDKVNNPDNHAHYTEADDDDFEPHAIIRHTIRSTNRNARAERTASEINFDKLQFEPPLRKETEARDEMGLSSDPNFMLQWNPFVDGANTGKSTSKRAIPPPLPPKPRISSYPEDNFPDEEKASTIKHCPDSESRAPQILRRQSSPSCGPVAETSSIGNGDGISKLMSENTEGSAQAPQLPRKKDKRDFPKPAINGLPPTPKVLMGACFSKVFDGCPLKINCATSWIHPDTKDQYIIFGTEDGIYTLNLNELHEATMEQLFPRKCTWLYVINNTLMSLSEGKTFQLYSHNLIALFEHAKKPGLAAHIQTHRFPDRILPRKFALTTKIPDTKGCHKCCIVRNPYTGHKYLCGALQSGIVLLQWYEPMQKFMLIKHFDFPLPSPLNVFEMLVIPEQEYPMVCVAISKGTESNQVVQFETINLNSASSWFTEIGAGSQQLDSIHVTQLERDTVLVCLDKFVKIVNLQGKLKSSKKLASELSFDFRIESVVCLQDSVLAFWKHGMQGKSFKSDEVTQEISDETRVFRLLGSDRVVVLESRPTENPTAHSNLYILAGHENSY

[42] = molecular target: 5-hydroxytryptamine receptor 5A (Homo sapiens) (UniProt P47898); conditions: Compound concentration 10.0 uM
Chain of 5-hydroxytryptamine receptor 5A (Homo sapiens) (P47898 whole entry): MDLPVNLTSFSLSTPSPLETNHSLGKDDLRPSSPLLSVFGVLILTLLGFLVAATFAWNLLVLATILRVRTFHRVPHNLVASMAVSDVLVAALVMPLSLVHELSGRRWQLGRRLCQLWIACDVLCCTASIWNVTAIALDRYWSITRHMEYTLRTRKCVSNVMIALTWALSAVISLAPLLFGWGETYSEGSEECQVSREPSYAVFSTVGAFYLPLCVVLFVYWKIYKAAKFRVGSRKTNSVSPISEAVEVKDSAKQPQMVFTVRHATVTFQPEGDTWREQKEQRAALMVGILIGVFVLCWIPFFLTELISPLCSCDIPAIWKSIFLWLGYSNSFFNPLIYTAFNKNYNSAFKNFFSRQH

[43] = molecular target: Ephrin type-A receptor 7 (Homo sapiens) (UniProt Q15375); conditions: Compound concentration 1000.0 nM
[44] = molecular target: Myosin light chain kinase 2, skeletal/cardiac muscle (Homo sapiens) (UniProt Q9H1R3); conditions: Compound concentration 1000.0 nM

C[C@H](c1ccc(F)cc1)N(Cc1cccc(C(=O)O)c1)C(=O)c1cnc2ccccc2c1 [PF-05105679]
inactive: residual activity [1] 93% | residual activity [2] 93% | residual activity [3] 100% | residual activity [4] 93% | residual activity [5] 98% | residual activity [6] 100% | residual activity [7] 82% | residual activity [8] 100% | residual activity [9] 79% | residual activity [10] 100% | inhibition [11] 23.7% | inhibition [12] 21% | residual activity [13] 79% | residual activity [14] 100% | residual activity [15] 100% | residual activity [16] 98% | residual activity [17] 100% | residual activity [18] 90% | residual activity [19] 93% | residual activity [20] 100% | residual activity [21] 87% | residual activity [22] 75% | residual activity [23] 100% | residual activity [24] 94% | residual activity [25] 85% | residual activity [26] 76% | inhibition [27] 20.8% | residual activity [28] 100% | inhibition [29] 20% | residual activity [30] 95% | residual activity [31] 94% | residual activity [32] 100% | residual activity [33] 100% | residual activity [34] 100% | residual activity [35] 100% | residual activity [36] 100% | inhibition [37] -1.69% | residual activity [38] 100% | residual activity [39] 100% | residual activity [40] 75% | residual activity [41] 100% | inhibition [42] -1.89% | residual activity [43] 80% | residual activity [44] 100%
